# According to patent publication US20260085315A1, “POLYNUCLEOTIDE COMPOSITIONS AND METHODS FOR TREATMENT OF CANCER” (APTAH BIO, INC., priority 2023, published 2026):
# d = 2'-deoxy (DNA); m = 2'-O-methyl
# Experiments:
# [1] = system: glioblastoma cell line U87-MG; test: Internalization of FAM-conjugated compound by flow cytometry; assay type: cell-based, Human; conditions: 1 μM FAM conjugate
# Description: The values obtained were: 1 hour (47.45±4.7%), 2 hours (45.45±3.9%), 4 hours (58±4.8%) and 6 hours (63.65±3.2%). Cells were exposed to the fluorochrome-conjugated compound FAM at a concentration of 1 μM, so that the quantification of intracellular fluorescence was performed at 1, 2, 4 and 6 hours using of the flow cytometry technique, through the acquisition of 10,000 gated events. Data of 2 independent experiments performed in two technical replicates.
# [2] = system: U87MG (Human Glioblastoma); test: MTT viability assay 48/96/144 h (Example 5); assay type: cell-based; conditions: 0.003-30 μM tested
# Description: In vitro effects of APT20TTMG on viability and proliferation of human cancer cell line U87MG (Human Glioblastoma) were also evaluated by MTT and BrdU assays, respectively. Cells were treated with APT20TTMG and Reference Items in technical triplicates (Experiment was done in 3 different sets) at various concentrations for 48 h, 96 h, and 144 h. APT20TTMG and Reference Items were read after every 48 h.
# As shown in FIGS. 32-33, A MTT assay (FIG. 32) was also performed with another five different concentrations of APT20TTMG (0.003, 0.03, 0.3, 3, and 30 μM) and at 48, 96, and 144 hours of incubation. […] Finally, to confirm whether APT20TTMG is a cytotoxic or cytostatic molecule considering its ability to reduce cellular viability in certain concentrations, a cell proliferation assay (FIG. 33) with the U87-MG cell line was also performed in the same conditions as the MTT assay. […] Cells were plated and treated with 5 different concentrations (0.003, 0.03, 0.3, 3, and 30 μM). BrdU assay was performed after 48, 96, or 144 hours of incubation. Data are plotted as a percentage (%) of cell viability compared to the negative control group (vehicle). Results are expressed as Mean±SEM of three independent experiments performed in three technical replicates. […]
# AKT = test: ELISA of tumor tissue homogenate; assay type: in vivo, Human; conditions: in relation to the negative control
# Description: (§1) For the assessment of biomarkers such as cAMP, AKT, GFAP, and TAU by ELISA, the U-87MG tumor tissues dissected out from the animals were homogenized according to kit instructions. The homogenates were centrifugated, and the supernatant was collected and immunoassayed with the Human AKT Protein ELISA Kit (MyByoSouce), cyclic AMP Complete Enzyme-linked Immunosorbent Assay (ELISA) kit (MyByoSouce), Human Glial Fibrillary Acidic Protein (GFAP) ELISA Kit (Cusabio), and Human TAU Protein (TAU) ELISA Kit (MyByoSouce) for the quantitative determination of cAMP, AKT, GFAP, and TAU proteins, respectively.
# (§2) As shown in FIG. 37A-D, the graphs present the individual values of protein quantification of tumors from 6 animals. (A) cAMP, (B) […], (C) GFAP, and (D) TAU.
# TAU = test: ELISA of tumor tissue homogenate; assay type: in vivo, Human; conditions: after treatment
# Description: as §1, §2
# SH-SY5Y cell line [3] = test: MTT cytotoxicity assay on human cancer cell panel (Example 2); assay type: cell-based; conditions: 0.03-30 μM tested, 0.1% FBS
# Description: Cell lines were maintained in growth medium with 10% of Fetal Bovine Serum (FBS) until the time of the experiments. Cells were sub-cultured by trypsinization and splitting the cell suspension into fresh flasks and supplementing with fresh culture medium. To perform the assay, the cells were trypsinized, neutralized with complete medium (10% FBS), centrifuged, counted with assistance of a hemocytometer, and plated with the respective media with 10% FBS. Cell lines were plated at a density of 1×10^4 cells per well, other than the SH-SY5Y cell line which was plated at a density of 2.5×10^4. […] After 24, 48, 72 and 96 hours of incubation, the effect of ASMO1 and controls on cytotoxicity of cells was determined by MTT assay.
# Briefly, plates were taken out and 20 μl of 5 mg/ml of MTT 3-(4,5-dimethythiazol-2-yl)-2,5-diphenyl tetrazolium bromide solution was added to all the wells. […] The absorbance of each well was then read at 540 nm using Synergy HT microplate reader.
# As shown in FIG. 13A-D, up to 72 hours ASMO1 APT20TTMG seems to have a cytotoxic effect from the concentration of […]. At 96 hours, the profile is a little different, and the concentration of 0.3 μM seems to start some effect. […] MTT assay was performed in 4 distinct times and graphs are represented as absorbance (540 nm). […]
# SH-SY5Y cell line [4] = test: MTT mitochondrial activity / cell viability; assay type: cell-based, Human; conditions: any concentration; 24 and 48 hours
# Description: FIG. 22A-22B illustrates the evaluation of mitochondrial activity in SH-SY5Y cell line after incubation in ASMO1. MTT assay was performed after 24 hours (FIG. 22A) and 48 hours (FIG. 22B) of incubation.
# Ki67 = Ki67 immunohistochemistry of tumor samples; assay type: in vivo, athymic nude mice; conditions: treated groups vs non-treated control
# Description: Immunohistochemistry analysis of Ki67 in tumor samples was also performed. Quantification of the Ki67 in the sections was carried out by visual estimation (Ki67+ve) using two approaches: count of Ki-67 positive tumor cells and Ki67 total area. This process was done using ImageJ public domain software. In the case of the Ki67 total area evaluation, the ImageJ threshold function was used and each image was split into its constituent red, blue and green grayscale images. Further, one of these was selected and processed for threshold values. Values were selected so that the relevant areas (Ki67+ve cells, in this case) were highlighted and the % of area occupied by the selected threshold limits measured.
# As shown in FIG. 35A-B, graphs present the individual values of protein quantification of tumors from 8 animals. (A) Ki-67 area, (B) Ki-67 positive tumor cells count.
# SH-SY5Y cell line [5] = test: Distribution of cell cycle phases; assay type: cell-based, Human; conditions: any concentration evaluated
substance,measurement,setting,value
"APT20TTMG: engineered polynucleotide ASMO1, 24 nt, SEQ ID NO: 3 gtccactaacctttcaggccagcg; targeting moieties 5′-GTCCA-3′ and 5′-CG-3′, U1 snRNP recruiting moiety (GTCCACTAACCTTTCAGGCCAGCG; sugars from the 5' end m5 d14 m5, all phosphorothioate, methylation of C and T or U not given here)",internalization,[1]; 1 hour,47.45±4.7%
same,internalization,[1]; 2 hours,45.45±3.9%
same,internalization,[1]; 4 hours,58±4.8%
same,internalization,[1]; 6 hours,63.65±3.2%
same,concentrations observed to reduce cell viability (MTT),[2]; 96 and 144 hours,≥ 0.3 µM
same,concentration observed to reduce cell viability (MTT),[2]; 48 hours,30 µM
same,AKT expression in tumor tissue (ELISA),AKT,reduces the expression of ART protein
same,TAU expression in tumor tissue (ELISA),TAU,significant reduction in TAU expression
same,concentration that starts some effect (MTT),SH-SY5Y cell line [3]; 96 hours,≥ 0.3 µM
same,concentration from which a cytotoxic effect is seen (MTT),SH-SY5Y cell line [3]; up to 72 hours,≥ 1 p M
same,cell viability (MTT),SH-SY5Y cell line [4],no change in cell viability
same,Ki67 (positive tumor cell count and total area),Ki67,did not detect any statistical differences
same,cell cycle phases,SH-SY5Y cell line [5],no change in cell cycle phases
